In brackets after ≈: the same amount, converted by molar mass.
System: Ehrlich
Assay: Cytotoxicity against mouse Ehrlich cells
Assay type: functional, cell-based

C[C@@H](N)[C@H](O)CCCCCCCC(=O)CCCCCCCCCCCCCC[C@@H](O[C@@H]1O[C@H](CO)[C@H](O)[C@H](O)[C@H]1O)[C@@H](C)N [RHIZOCHALIN]
IC50: 10 µg/mL (≈ 15.8 µM)

— ChEMBL document CHEMBL1142587, “Rhizochalin A, a novel two-headed sphingolipid from the sponge Rhizochalina incrustata” (J Nat Prod, 2005)
